ChEMBL document CHEMBL1201862, “PubChem BioAssay data set” (2004)
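Exposure lasted 48 hours, with cells grown in 96-well plates and compounds tested at five concentrations. The concentration for 50% growth inhibition is given as GI50.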 Activity calls are given as the source filed them. Rule as the data show it: active = GI50 up to about 1.1 µM and inactive = higher.

Assays:
Test in all cases: inhibition of tumour cell growth, NCI panel, 48 h
U-251 = system: U-251
UO-31 = system: UO-31
DLD-1 = system: DLD-1
SW-620 = system: SW-620
IGROV-1 = system: IGROV-1
OVCAR-5 = system: OVCAR-5
HOP-92 = system: HOP-92
HT-29 = system: HT-29
KM12 = system: KM12
NCI-H226 = system: NCI-H226
K562 = system: K562
NCI-H522 = system: NCI-H522
NCI-H460 = system: NCI-H460
UACC-257 = system: UACC-257
SF-539 = system: SF-539
A498 = system: A498
SK-OV-3 = system: SK-OV-3
KM-20L2 = system: KM-20L2
Malme-3M = system: Malme-3M
DMS-114 = system: DMS-114
OVCAR-3 = system: OVCAR-3
UACC-62 = system: UACC-62
SF-295 = system: SF-295
786-0 = system: 786-0
RXF 631 = system: RXF 631
RPMI-8226 = system: RPMI-8226
SK-MEL-2 = system: SK-MEL-2
SK-MEL-28 = system: SK-MEL-28
CAKI-1 = system: CAKI-1
MOLT-4 = system: MOLT-4
ACHN = system: ACHN
SK-MEL-5 = system: SK-MEL-5
HCT-15 = system: HCT-15
HCT-116 = system: HCT-116
HOP-62 = system: HOP-62
COLO 205 = system: COLO 205
SNB-78 = system: SNB-78
M19-MEL = system: M19-MEL
CCRF-CEM = system: CCRF-CEM
DMS-273 = system: DMS-273
OVCAR-8 = system: OVCAR-8
M14 = system: M14
HOP-18 = system: HOP-18
SNB-75 = system: SNB-75
SR = system: SR
HCC 2998 = system: HCC 2998
SN12C = system: SN12C
LXFL 529 = system: LXFL 529
TK-10 = system: TK-10
HL-60 = system: HL-60
SF-268 = system: SF-268
A549 = system: A549
EKVX = system: EKVX
RXF 393 = system: RXF 393
OVCAR-4 = system: OVCAR-4
NCI-H23 = system: NCI-H23
XF498 = system: XF498
LOX IMVI = system: LOX IMVI
SNB-19 = system: SNB-19

## CCOC(=O)C1C=C2O[C@@H]3OC4(CCCCC4)O[C@@H]3C2[C@H]2C(=O)C=CC(=O)[C@@]12C(=O)OC (some centres undefined)
U-251
  GI50: 8.69 µM (inactive)
UO-31
  GI50: 16.3 µM (inactive)
DLD-1
  GI50: 16.6 µM (inactive)
SW-620
  GI50: 12.8 µM (inactive)
IGROV-1
  GI50: 10.3 µM (inactive)
OVCAR-5
  GI50: 17.1 µM (inactive)
HOP-92
  GI50: 12.2 µM (inactive)
HT-29
  GI50: 6.9 µM (inactive)
KM12
  GI50: 12.3 µM (inactive)
NCI-H226
  GI50: 20.6 µM (inactive)
K562
  GI50: 5.45 µM (inactive)
NCI-H522
  GI50: 3.98 µM (inactive)
NCI-H460
  GI50: 14.6 µM (inactive)
UACC-257
  GI50: 16.8 µM (inactive)
SF-539
  GI50: 3.15 µM (inactive)
A498
  GI50: 18.3 µM (inactive)
SK-OV-3
  GI50: 18.2 µM (inactive)
KM-20L2
  GI50: 14.5 µM (inactive)
Malme-3M
  GI50: 17.2 µM (inactive)
DMS-114
  GI50: 4.75 µM (inactive)
OVCAR-3
  GI50: 7.89 µM (inactive)
UACC-62
  GI50: 16.8 µM (inactive)
SF-295
  GI50: 18.2 µM (inactive)
786-0
  GI50: 7.21 µM (inactive)
RXF 631
  GI50: 16.3 µM (inactive)
RPMI-8226
  GI50: 2.84 µM (inactive)
SK-MEL-2
  GI50: 16.1 µM (inactive)
SK-MEL-28
  GI50: 15.6 µM (inactive)
CAKI-1
  GI50: 16 µM (inactive)
MOLT-4
  GI50: 2.7 µM (inactive)
ACHN
  GI50: 18.1 µM (inactive)
SK-MEL-5
  GI50: 19.2 µM (inactive)
HCT-15
  GI50: 9.4 µM
HCT-116
  GI50: 6.61 µM (inactive)
HOP-62
  GI50: 20 µM (inactive)
COLO 205
  GI50: 8.61 µM (inactive)
SNB-78
  GI50: 6.49 µM (inactive)
M19-MEL
  GI50: 16 µM (inactive)
CCRF-CEM
  GI50: 2.84 µM (inactive)
DMS-273
  GI50: 8.65 µM (inactive)
OVCAR-8
  GI50: 6.41 µM (inactive)
M14
  GI50: 15.9 µM (inactive)
HOP-18
  GI50: 15.7 µM (inactive)
SNB-75
  GI50: 19.4 µM (inactive)
SR
  GI50: 2.71 µM (inactive)
HCC 2998
  GI50: 14.3 µM (inactive)
SN12C
  GI50: 16.7 µM (inactive)
LXFL 529
  GI50: 10.7 µM (inactive)
TK-10
  GI50: 13.6 µM (inactive)
HL-60
  GI50: 2.25 µM (inactive)
SF-268
  GI50: 12.4 µM (inactive)
A549
  GI50: 14.5 µM (inactive)
EKVX
  GI50: 16.6 µM (inactive)
RXF 393
  GI50: 1.66 µM (inactive)
OVCAR-4
  GI50: 9.31 µM (inactive)
NCI-H23
  GI50: 16.3 µM (inactive)
XF498
  GI50: 7.29 µM (inactive)
LOX IMVI
  GI50: 15.5 µM (inactive)
SNB-19
  GI50: 8.38 µM (inactive)
